Measured values reported in patent publication US12233161B1, “Lipids and lipid nanoparticle formulations” (LONGUIDE BIOPHARMA CORPORATION, priority 2024, dated 2025).

Experiments:
[1] = Particle size and PDI of nucleic acid lipid nanoparticle preparations by dynamic light scattering; type: physicochemical; settings: DMG-PEG2000:DSPC:Chol:compound 1.40:11.15:38.95:48.50, N/P 30
Summary of the method: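 Size read by DLS after diluting the LNP preparation (approx. 0.04 mg/mL mRNA) in ultrapure water with gentle pipette mixing. The same sample, recovered and diluted further with water, was then used for zeta potential measurement.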

[2] = Potential characterization of nucleic acid lipid nanoparticle preparations; type: physicochemical; settings: DMG-PEG2000:DSPC:Chol:compound 1.40:11.15:38.95:48.50, N/P 30
Procedure: 20 μL of the nucleic acid lipid nanoparticle solution (containing about 0.04 mg/mL mRNA) was taken and added with 780 μL of ultrapure water, used a pipette tip to gently blow and mix, and the potential of the nanopreparation was detected by Malvern particle sizer (model ZEN3700).
27.5 μL nucleic acid lipid nanoparticle solution (containing about 0.04 mg/mL mRNA) was taken and added with 200 μL ultrapure water. A pipette tip was used to gently blow the sample and mix well. The particle size of the nanopreparation was detected by Malvern Dynamic Light Scattering Instrument (Malvern Instruments Ltd., ZEN3700, UK). After the detection, the sample was recovered to an EP tube, and 600 μL of ultrapure water was added, gently blown with a pipette tip, and the potential of the nanopreparation was measured by a Malvern particle size meter.

[3] = system: mice; assay: In vivo delivery of FLuc-mRNA lipid nanoparticles in mice, in vivo imaging (IVIS); settings: DMG-PEG2000:DSPC:Chol:compound 1.40:11.15:38.95:48.50, N/P 30; for IVIS: Fluc-mRNA
Summary of the method: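 Mice (n=3) received about 75 μL FLuc-mRNA LNP per mouse intramuscularly (rectus femoris), intravenously (tail vein), intraperitoneally or subcutaneously (back). After injection, D-luciferin (200 μL, 15 mg/mL) was given i.p. 10-15 min before IVIS imaging.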

| Structure (SMILES) | PDI [1] | Particle size (nm) [1] | Zeta potential (mV) [2] | IVIS ([3]; IM) | IVIS ([3]; IV, body) | % of organ targeting ([3]; IV, liver) | IVIS ([3]; IV, liver) | % of organ targeting ([3]; IV, lung) | IVIS ([3]; IV, lung) | % of organ targeting ([3]; IV, spleen) | IVIS ([3]; IV, spleen) | IVIS ([3]; IV, organ not given) |
| --- | --- | --- | --- | --- | --- | --- | --- | --- | --- | --- | --- | --- |
| CCCCCCCCCCNC(=O)C(O)CN(CCCN(CCCN(CC(O)C(=O)NCCCCCCCCCC)CC(O)C(=O)NCCCCCCCCCC)C(CO)CO)CC(O)C(=O)NCCCCCCCCCC (stereo not drawn) [Compound L0287] | 0.18 | 137.37 nm | 14.13 mV | 1.81E+06 | 1.89E+07 | 34.55% | 3.26E+06 | 25.98% | 2.45E+06 | 39.46% | 3.72E+06 |  |
| CCCCCCCCCCCCNC(=O)C(O)CNCCCN(C)CCCN(CC(O)C(=O)NCCCCCCCCCCCC)CC(O)C(=O)NCCCCCCCCCCCC (stereo not drawn) [Compound L0288] | 0.12 | 108.77 nm | 12.50 mV | 1.45E+05 | 6.03E+06 | 5.74% | 5.25E+05 | 78.38% | 7.18E+06 | 15.88% | 1.45E+06 |  |
| CCCCCCCCCCCCNC(=O)C(O)CNCCCN(C)CCCNCC(O)C(=O)NCCCCCCCCCCCC (stereo not drawn) [Compound L0289] | 0.09 | 132.40 nm | 11.00 mV | 1.24E+05 |  |  |  |  |  |  |  | 1.63E+05 |
